Assay results published in US20240384268A1, “Oligonucleotides” (Hudson Institute of Medical Research, priority 2021, published 2024).
In the oligonucleotide strings, read from the 5' end, every base follows the letter of its sugar. An asterisk marks phosphorothioate; unmarked linkages are phosphodiester. Other units and linkages are bracketed, terminal groups are in braces. A string of capitals states the bases alone. d = 2'-deoxy (DNA); m = 2'-O-methyl

Biological target: T1, human TLR9 (Homo sapiens, UniProt Q9NR96)
T1 construct: HA; host or cells: 293XL-hTLR9-HA (HEK293)
T1 sequence (Q9NR96 26-1032): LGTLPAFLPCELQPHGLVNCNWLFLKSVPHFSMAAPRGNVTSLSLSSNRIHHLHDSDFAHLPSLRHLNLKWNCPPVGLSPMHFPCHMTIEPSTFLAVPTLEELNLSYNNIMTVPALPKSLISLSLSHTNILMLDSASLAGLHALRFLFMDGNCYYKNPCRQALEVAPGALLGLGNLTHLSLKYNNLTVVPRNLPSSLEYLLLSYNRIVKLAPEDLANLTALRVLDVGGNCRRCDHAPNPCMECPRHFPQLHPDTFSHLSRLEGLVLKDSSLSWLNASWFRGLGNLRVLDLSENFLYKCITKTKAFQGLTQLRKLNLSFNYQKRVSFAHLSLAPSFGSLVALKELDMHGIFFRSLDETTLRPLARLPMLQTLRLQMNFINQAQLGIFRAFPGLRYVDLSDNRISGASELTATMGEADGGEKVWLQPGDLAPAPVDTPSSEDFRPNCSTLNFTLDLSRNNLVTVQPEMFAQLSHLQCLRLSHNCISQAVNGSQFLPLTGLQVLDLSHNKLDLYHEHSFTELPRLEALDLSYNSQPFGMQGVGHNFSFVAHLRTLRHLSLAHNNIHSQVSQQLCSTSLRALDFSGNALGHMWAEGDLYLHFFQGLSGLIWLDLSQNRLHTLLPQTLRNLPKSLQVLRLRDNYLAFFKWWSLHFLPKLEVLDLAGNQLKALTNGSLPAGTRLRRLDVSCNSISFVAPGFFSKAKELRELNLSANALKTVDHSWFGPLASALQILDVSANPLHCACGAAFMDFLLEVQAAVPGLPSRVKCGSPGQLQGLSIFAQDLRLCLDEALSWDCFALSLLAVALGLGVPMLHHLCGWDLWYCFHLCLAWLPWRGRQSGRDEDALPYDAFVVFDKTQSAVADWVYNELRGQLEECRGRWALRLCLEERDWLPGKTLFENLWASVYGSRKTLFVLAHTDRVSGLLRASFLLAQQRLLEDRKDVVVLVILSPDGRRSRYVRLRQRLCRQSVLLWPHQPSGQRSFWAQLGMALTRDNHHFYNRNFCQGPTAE
Test: HEK-TLR9 NF-κB-luciferase reporter, ODN2006 stimulation
Type: cell-based
Conditions: for TLR9-500 nM: averaged NF-κB-Luciferase relative to ODN2006 / inhibition of TLR9 sensing of ODN2006 (in words): HEK-TLR9; for TLR9-500 nM: averaged NF-κB-Luciferase relative to ODN2006: 500 nM ASO 45 min, then 200 nM ODN2006 overnight, percentage of ODN2006 only; for inhibition of TLR9 sensing of ODN2006 (in words): 500 nM 2′OMe or PS oligos, 200 nM ODN2006

Substance	TLR9-500 nM: averaged NF-κB-Luciferase relative to ODN2006 [%]	other results
TTCAGGCGCTGCCTTG (antisense; LNA-modified, pattern not given here) [CAMSAP1-2709 LNA V1]		TLR9 100 nM (averaged NF-κB-Luciferase level relative to ODN2006 condition) (ASO 100 nM, relative to ODN2006 only, given as fraction): 1.202; TLR9 500 nM (averaged NF-κB-Luciferase level relative to ODN2006 condition) (ASO 500 nM, relative to ODN2006 only, given as fraction): 0.494
mA*mA*mA*mG*mC*A*G*T*C*T*C*C*A*T*G*mU*mC*mC*mC*mA (mA*mA*mA*mG*mC*dA*dG*dT*dC*dT*dC*dC*dA*dT*dG*mU*mC*mC*mC*mA; antisense) [[CDKN2B-AS1]2237]	87.17	
mA*mA*mG*mC*mA*G*T*C*T*C*C*A*T*G*T*mC*mC*mC*mA*mG (mA*mA*mG*mC*mA*dG*dT*dC*dT*dC*dC*dA*dT*dG*dT*mC*mC*mC*mA*mG; antisense) [[CDKN2B-AS1]2236]	69.71	
mA*mG*mC*mA*mG*T*C*T*C*C*A*T*G*T*C*mC*mC*mA*mG*mG (AGCAGTCTCCATGTCCCAGG; antisense; sugars from the 5' end m5 d10 m5, all phosphorothioate, methylation of C not given here) [[CDKN2B-AS1]2235]	73.18	
mA*mG*mU*mC*mU*C*C*A*T*G*T*C*C*C*A*mG*mG*mC*mC*mU (mA*mG*mU*mC*mU*dC*dC*dA*dT*dG*dT*dC*dC*dC*dA*mG*mG*mC*mC*mU; antisense) [[CDKN2B-AS1]2232]	122.20	
mA*mG*mU*mG*mG*C*A*C*A*T*A*C*C*A*C*mA*mC*mC*mC*mU (AGUGGCACATACCACACCCU; antisense; sugars from the 5' end m5 d10 m5, all phosphorothioate, methylation of C not given here) [[CDKN2B-AS1]495]	86.07	
mA*mU*mU*mU*mC*C*A*C*A*T*G*C*C*C*A*mG*mU*mG*mU*mU (AUUUCCACATGCCCAGUGUU; antisense; sugars from the 5' end m5 d10 m5, all phosphorothioate, methylation of C not given here) [[CDKN2B-AS1]626]	63.65	
mC*mA*mG*mU*mC*T*C*C*A*T*G*T*C*C*C*mA*mG*mG*mC*mC (mC*mA*mG*mU*mC*dT*dC*dC*dA*dT*dG*dT*dC*dC*dC*mA*mG*mG*mC*mC; antisense) [[CDKN2B-AS1]2233]	55.13	
mC*mA*mG*mU*mG*T*T*T*T*T*A*A*T*T*T*mU*mG*mU*mA*mG (mC*mA*mG*mU*mG*dT*dT*dT*dT*dT*dA*dA*dT*dT*dT*mU*mG*mU*mA*mG; antisense) [[CDKN2B-AS1]613]	92.59	
mC*mU*mU*mG*mU*G*A*A*A*A*G*A*T*T*A*mU*mC*mU*mU*mC (mC*mU*mU*mG*mU*dG*dA*dA*dA*dA*dG*dA*dT*dT*dA*mU*mC*mU*mU*mC) [[CDKN2B-AS1]2139]	34.91	inhibition of TLR9 sensing of ODN2006 (in words): strongly inhibited TLR9; inhibition of TLR9 sensing of ODN2006 (in words) (listed as ASO2139): significantly increased TLR9 inhibition
mG*mC*mA*mG*mU*C*T*C*C*A*T*G*T*C*C*mC*mA*mG*mG*mC (GCAGUCTCCATGTCCCAGGC; antisense; sugars from the 5' end m5 d10 m5, all phosphorothioate, methylation of C not given here) [[CDKN2B-AS1]2234]	90.04	inhibition of TLR9 sensing of ODN2006 (in words): did not inhibit TLR9
mG*mU*mC*mU*mC*C*A*T*G*T*C*C*C*A*G*mG*mC*mC*mU*mC (mG*mU*mC*mU*mC*dC*dA*dT*dG*dT*dC*dC*dC*dA*dG*mG*mC*mC*mU*mC) [[CDKN2B;AS1]2231]	77.80	
mG*mU*mG*mU*mC*C*T*T*C*A*T*G*C*T*T*mU*mG*mG*mA*mU (GUGUCCTTCATGCTTUGGAU; antisense; sugars from the 5' end m5 d10 m5, all phosphorothioate, methylation of C not given here) [[CDKN2B-AS1]1415]	98.99	
mG*mU*mG*mU*mU*T*T*T*A*A*T*T*T*T*G*mU*mA*mG*mA*mG (mG*mU*mG*mU*mU*dT*dT*dT*dA*dA*dT*dT*dT*dT*dG*mU*mA*mG*mA*mG) [[CDKN2B-AS1]611]	98.50	
mU*mA*mU*mU*mU*C*C*A*C*A*T*G*C*C*C*mA*mG*mU*mG*mU (mU*mA*mU*mU*mU*dC*dC*dA*dC*dA*dT*dG*dC*dC*dC*mA*mG*mU*mG*mU; antisense) [[CDKN2B-AS1]627]	71.20	
